Values quoted from earlier work as cited in patent US20240091240A1, “TREATMENTS FOR BLOOD-BRAIN BARRIER DYSFUNCTION AND RECURRENT SEIZURES USING NOX/LOX/COX INHIBITORS” (University of Kentucky Research Foundation, priority 2022, published 2024).

Tested on: subjects suffering from seizures
Conditions: dosage of 5 mg/kg and 10 mg/kg

Structure (SMILES): CC1(C)Cc2c(-c3ccccc3)c(-c3ccc(Cl)cc3)c(CC(=O)O)n2C1 [licofelone]
- brain capillary leakage: reduce brain capillary leakage
